# Assay results reported in US8959984B2, “Proteome-wide quantification of small molecule binding to cellular target proteins” (priority 2007, dated 2015).
# Where two headings read alike, the source gives them in different places.
# Assays:
# RIOK2 = molecular target: T1, RIOK2 (Homo sapiens, UniProt Q9BVS4); experiment: binding to immobilized V16742 (IVA1/IVA2, HeLa lysate, MS)
# T1 construct: endogenous in cells; host or cells: HeLa S3
# [1] = molecular target: T2, hydroxyacyl Coenzyme A dehydrogenase, type II isoform 1 (Homo sapiens, UniProt Q99714); experiment: as above
# T2 construct: endogenous in cells; host or cells: HeLa S3
# T2 sequence (Q99714 1-261): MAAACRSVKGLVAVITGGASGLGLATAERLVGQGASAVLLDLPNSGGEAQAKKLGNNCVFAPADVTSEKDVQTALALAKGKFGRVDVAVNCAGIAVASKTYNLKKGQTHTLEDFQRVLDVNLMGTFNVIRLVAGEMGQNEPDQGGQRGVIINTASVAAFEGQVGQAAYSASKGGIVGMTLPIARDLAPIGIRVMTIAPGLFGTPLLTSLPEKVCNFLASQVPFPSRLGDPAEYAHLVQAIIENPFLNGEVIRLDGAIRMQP
# [2] = molecular target: T3, MST3 (STK24, IPI00872754) (Homo sapiens, UniProt Q9Y6E0); experiment: binding to VI16742 beads (HeLa lysate, SILAC MS)
# T3 construct: endogenous in cells; host or cells: HeLa S3 cell lysate
# T3 sequence (Q9Y6E0 whole entry): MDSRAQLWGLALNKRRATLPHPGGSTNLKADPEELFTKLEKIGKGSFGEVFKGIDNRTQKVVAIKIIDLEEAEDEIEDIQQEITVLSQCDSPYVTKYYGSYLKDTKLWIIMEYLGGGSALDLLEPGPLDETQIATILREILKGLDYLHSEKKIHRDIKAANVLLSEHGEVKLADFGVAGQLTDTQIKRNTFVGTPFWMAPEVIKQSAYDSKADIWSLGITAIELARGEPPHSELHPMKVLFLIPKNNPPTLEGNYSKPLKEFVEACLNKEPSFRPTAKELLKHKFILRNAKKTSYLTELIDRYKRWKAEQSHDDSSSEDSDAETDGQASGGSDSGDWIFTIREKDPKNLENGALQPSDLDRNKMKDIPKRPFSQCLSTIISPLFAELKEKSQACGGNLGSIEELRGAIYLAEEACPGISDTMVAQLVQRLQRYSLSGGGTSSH
# CaMK2g (CAMK2G) = CaMK2g (CAMK2G) (Homo sapiens, UniProt Q13555)
# CaMK2g (CAMK2G), sequence (Q13555 whole entry): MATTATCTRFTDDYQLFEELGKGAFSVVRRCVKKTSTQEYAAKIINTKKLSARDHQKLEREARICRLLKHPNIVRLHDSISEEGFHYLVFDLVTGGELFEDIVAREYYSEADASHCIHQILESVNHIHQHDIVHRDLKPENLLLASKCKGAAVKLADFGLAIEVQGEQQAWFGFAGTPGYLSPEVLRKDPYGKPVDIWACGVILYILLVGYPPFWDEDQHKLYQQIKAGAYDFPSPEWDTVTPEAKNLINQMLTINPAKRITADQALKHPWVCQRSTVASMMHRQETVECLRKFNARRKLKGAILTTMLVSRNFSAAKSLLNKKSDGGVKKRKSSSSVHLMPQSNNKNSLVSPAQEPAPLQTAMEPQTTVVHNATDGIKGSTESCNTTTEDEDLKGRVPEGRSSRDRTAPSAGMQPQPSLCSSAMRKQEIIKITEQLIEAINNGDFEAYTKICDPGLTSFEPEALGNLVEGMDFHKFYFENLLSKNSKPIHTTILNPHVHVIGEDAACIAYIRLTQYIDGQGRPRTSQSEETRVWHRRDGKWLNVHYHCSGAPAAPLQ
# SNRPG = SNRPG (Homo sapiens, UniProt P62308)
# SNRPG, sequence (P62306 whole entry): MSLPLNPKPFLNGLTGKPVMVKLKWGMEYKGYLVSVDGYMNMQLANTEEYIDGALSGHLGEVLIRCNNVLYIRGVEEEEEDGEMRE
# SNRPG, sequence (P62304 whole entry, further chain): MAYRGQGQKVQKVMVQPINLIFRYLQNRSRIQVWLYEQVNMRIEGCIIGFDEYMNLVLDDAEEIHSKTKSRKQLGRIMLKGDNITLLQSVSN
# SNRPG, sequence (P62308 whole entry): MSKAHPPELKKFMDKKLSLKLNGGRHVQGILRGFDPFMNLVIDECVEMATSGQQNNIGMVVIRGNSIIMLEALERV
# SgK085 (MYLK3) = molecular target: T4, SgK085 (MYLK3) (Homo sapiens, UniProt Q32MK0)
# T4 sequence (Q32MK0 1-819): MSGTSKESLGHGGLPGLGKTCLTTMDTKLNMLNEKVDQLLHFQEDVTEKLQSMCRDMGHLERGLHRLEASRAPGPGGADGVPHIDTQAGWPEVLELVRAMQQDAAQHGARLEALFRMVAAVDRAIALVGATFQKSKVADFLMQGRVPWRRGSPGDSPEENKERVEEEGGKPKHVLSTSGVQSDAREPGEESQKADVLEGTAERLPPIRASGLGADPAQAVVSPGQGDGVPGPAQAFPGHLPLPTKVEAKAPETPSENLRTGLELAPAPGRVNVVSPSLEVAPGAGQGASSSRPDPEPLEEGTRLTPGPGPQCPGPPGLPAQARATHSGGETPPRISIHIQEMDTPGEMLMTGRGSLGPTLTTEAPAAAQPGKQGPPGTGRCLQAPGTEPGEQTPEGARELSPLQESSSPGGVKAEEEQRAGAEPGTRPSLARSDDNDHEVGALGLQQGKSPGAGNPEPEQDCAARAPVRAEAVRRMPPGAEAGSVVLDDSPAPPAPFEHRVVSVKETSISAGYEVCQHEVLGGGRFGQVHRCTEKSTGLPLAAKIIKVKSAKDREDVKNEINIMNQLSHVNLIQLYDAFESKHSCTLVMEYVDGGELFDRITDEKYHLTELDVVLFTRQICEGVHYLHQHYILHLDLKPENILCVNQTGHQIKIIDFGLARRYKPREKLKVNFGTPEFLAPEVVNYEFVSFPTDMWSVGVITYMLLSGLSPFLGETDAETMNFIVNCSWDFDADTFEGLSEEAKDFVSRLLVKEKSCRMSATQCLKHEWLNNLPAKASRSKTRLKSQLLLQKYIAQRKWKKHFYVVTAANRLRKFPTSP
# EphB2 = molecular target: T5, EphB2 (Homo sapiens, UniProt P29323)
# T5 sequence (P29323 19-1055): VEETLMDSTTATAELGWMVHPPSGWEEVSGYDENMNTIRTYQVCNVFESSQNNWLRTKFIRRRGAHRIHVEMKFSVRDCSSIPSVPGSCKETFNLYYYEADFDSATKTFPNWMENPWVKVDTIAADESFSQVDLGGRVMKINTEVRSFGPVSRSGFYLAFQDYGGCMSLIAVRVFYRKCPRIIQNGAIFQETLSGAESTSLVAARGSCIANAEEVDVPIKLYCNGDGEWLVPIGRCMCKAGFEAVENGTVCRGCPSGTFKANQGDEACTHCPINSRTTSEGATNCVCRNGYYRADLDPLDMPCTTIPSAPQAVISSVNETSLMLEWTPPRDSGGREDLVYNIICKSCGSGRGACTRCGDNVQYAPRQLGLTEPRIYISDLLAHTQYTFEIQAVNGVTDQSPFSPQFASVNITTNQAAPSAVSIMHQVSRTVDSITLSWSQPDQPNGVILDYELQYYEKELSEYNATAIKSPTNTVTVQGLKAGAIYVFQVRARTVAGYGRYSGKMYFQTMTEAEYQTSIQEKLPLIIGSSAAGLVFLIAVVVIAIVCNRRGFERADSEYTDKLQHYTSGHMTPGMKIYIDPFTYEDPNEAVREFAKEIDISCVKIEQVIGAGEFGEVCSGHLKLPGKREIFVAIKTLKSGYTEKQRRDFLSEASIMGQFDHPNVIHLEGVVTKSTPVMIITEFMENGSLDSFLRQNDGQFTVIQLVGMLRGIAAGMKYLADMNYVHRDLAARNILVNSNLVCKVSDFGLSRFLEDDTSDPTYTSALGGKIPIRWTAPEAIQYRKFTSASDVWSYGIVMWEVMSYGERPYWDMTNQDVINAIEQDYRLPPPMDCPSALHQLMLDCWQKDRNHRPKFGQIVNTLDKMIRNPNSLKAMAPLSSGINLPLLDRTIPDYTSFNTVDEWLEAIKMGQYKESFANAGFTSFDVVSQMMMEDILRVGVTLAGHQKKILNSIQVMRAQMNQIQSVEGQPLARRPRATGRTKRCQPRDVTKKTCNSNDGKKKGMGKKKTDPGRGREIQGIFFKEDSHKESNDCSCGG
# [3] = average of two experiments, read-out: Kd Avg
# T1 sequence (Q9BVS4 whole entry): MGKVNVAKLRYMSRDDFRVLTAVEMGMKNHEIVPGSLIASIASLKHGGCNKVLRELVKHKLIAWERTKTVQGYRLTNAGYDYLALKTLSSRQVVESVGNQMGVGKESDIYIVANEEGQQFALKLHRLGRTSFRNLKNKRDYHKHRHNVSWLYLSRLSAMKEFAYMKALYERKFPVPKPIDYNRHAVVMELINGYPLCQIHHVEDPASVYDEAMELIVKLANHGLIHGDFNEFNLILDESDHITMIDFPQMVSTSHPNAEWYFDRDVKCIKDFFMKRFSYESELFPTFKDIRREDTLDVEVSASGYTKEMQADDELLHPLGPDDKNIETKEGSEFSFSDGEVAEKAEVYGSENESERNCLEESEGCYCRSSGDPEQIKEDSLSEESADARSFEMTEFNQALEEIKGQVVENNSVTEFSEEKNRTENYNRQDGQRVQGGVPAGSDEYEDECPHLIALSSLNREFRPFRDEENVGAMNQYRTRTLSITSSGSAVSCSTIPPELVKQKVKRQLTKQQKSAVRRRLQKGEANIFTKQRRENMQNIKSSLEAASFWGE
smiles,measurement,setting,value
CC(C)n1c(=O)ccc2cnc(Nc3ccc(OCCN)cc3)nc21 [V16742],Percent bound at various 16742 conc,"RIOK2; Experiment 1, 8.74 μM 16742",11.61%
same,Percent bound at various 16742 conc,"RIOK2; Experiment 1, 52 μM 16742",58.06%
same,Kd,"RIOK2; Experiment 1, read-out: Kd",42.6 µM
same,Percent bound at various 16742 conc,"RIOK2; Experiment 2, 1.87 μM 16742",1.55%
same,Percent bound at various 16742 conc,"RIOK2; Experiment 2, 8.74 μM 16742",7.91%
same,Percent bound at various 16742 conc,"RIOK2; Experiment 2, 52 μM 16742",48.34%
same,Kd,"RIOK2; Experiment 2, read-out: Kd",60.8 µM
same,Kd,RIOK2; [3],51.7 µM
same,Percent bound at various 16742 conc,"[1]; Experiment 1, 1.87 μM 16742",4.41%
same,Percent bound at various 16742 conc,"[1]; Experiment 1, 8.74 μM 16742",4.37%
same,Percent bound at various 16742 conc,"[1]; Experiment 1, 52 μM 16742",62.08%
same,Kd,"[1]; Experiment 1, read-out: Kd",42.7 µM
same,Percent bound at various 16742 conc,"[1]; Experiment 2, 1.87 μM 16742",8.75%
same,Percent bound at various 16742 conc,"[1]; Experiment 2, 8.74 μM 16742",10.79%
same,Percent bound at various 16742 conc,"[1]; Experiment 2, 52 μM 16742",41.03%
same,Kd,"[1]; Experiment 2, read-out: Kd",72.8 µM
same,Kd,[1]; [3],57.7 µM
same,r (5 h/2.5 h INC. TIME),[2]; 5 h vs 2.5 h incubation time,1.41
same,rAVERAGE (CTRL/1 INC),[2]; control beads vs first incubation,0.06
same,Ki,[2]; immobilized VI16742,89.8 µM
same,rAVERAGE (2 INC/1 INC),[2]; second vs first incubation,0.63
COc1cc2ncnc(Nc3ccc(F)c(Cl)c3)c2cc1OCCCN1CCOCC1 [gefitinib],rAVERAGE (10 nM/0 nM Gef.),CaMK2g (CAMK2G),0.95
same,rAVERAGE (100 nM/0 nM Gef.),CaMK2g (CAMK2G),1.08
same,rAVERAGE (1000 nM/0 nM Gef.),CaMK2g (CAMK2G),1.01
same,rAVERAGE (10000 nM/0 nM Gef.),CaMK2g (CAMK2G),0.92
same,rAVERAGE (10 nM/0 nM Gef.),SNRPG,0.65
same,rAVERAGE (100 nM/0 nM Gef.),SNRPG,1.09
same,rAVERAGE (1000 nM/0 nM Gef.),SNRPG,0.72
same,rAVERAGE (10000 nM/0 nM Gef.),SNRPG,0.89
same,rAVERAGE (10 nM/0 nM Gef.),SgK085 (MYLK3),0.97
same,rAVERAGE (100 nM/0 nM Gef.),SgK085 (MYLK3),1.01
same,rAVERAGE (1000 nM/0 nM Gef.),SgK085 (MYLK3),0.98
same,rAVERAGE (10000 nM/0 nM Gef.),SgK085 (MYLK3),0.53
same,rAVERAGE (10 nM/0 nM Gef.),EphB2,0.88
same,rAVERAGE (100 nM/0 nM Gef.),EphB2,0.90
same,rAVERAGE (1000 nM/0 nM Gef.),EphB2,0.85
same,rAVERAGE (10000 nM/0 nM Gef.),EphB2,0.33
